Measured values from ChEMBL document CHEMBL1201862, “PubChem BioAssay data set” (2004).
Calls of active or inactive are those of the source.

How the values were obtained:
[1] = OVCAR-3 cell viability loss – plate reader, dry powder samples, PAX8 inhibitor project, dose response (AID 743044); assay type: functional, cell-based
Paired box protein Pax-8 = Paired box protein Pax-8 (Homo sapiens, UniProt Q06710); test: PAX8 transcriptional activity inhibition in RMG-I – RMG-I cells, luciferase, cherry-pick, dose response (AID 687027); assay type: functional, cell-based;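 further: luciferase reporter driven by Pax8 target thyroperoxidase promoter measured by SteadyGlo luminescence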
Chain of Paired box protein Pax-8 (Q06710 whole entry): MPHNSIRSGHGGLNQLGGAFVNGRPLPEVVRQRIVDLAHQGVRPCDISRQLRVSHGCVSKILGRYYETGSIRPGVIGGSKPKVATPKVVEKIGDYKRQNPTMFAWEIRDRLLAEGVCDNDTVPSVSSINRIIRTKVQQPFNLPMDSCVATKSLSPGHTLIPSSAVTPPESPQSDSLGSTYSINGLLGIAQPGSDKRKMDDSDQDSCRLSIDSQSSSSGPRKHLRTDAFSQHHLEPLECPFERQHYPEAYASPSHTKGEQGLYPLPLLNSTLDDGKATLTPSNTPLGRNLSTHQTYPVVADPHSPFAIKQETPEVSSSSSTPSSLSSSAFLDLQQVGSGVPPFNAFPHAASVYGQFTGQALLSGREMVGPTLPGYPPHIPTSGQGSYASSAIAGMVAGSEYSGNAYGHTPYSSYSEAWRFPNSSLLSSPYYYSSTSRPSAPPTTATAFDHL

[2] = viability of HCT116 lacking mutant beta-catenin – cell-based, human colon tumor, dose response (AID 1045); assay type: functional;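 further: HCT116 colon tumor cells with beta catenin knocked out; cells exposed to compound for 60 hours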
[3] = viability of PTEN-deleted HCT116 cells – cell-based, HCT116 PTEN knockout, dose response (AID 1047); assay type: functional;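 further: HCT116 colon tumor cells with PTEN knocked out; cells exposed to compound for 60 hours before readout; potency for loss of cell viability measured by luminescence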
[4] = biological target: T1, Oxysterols receptor LXR-beta (Homo sapiens, UniProt P55055); test: LXR agonists, Gal4 luciferase reporter, dose response, counter-screen for ssDAF-12 agonist project, cell-based, luminescence, HEK293, S. stercoralis campaign (AID 720737); assay type: functional; conditions: read-out: IC50 (the source's name)
T1 sequence (P55055 whole entry): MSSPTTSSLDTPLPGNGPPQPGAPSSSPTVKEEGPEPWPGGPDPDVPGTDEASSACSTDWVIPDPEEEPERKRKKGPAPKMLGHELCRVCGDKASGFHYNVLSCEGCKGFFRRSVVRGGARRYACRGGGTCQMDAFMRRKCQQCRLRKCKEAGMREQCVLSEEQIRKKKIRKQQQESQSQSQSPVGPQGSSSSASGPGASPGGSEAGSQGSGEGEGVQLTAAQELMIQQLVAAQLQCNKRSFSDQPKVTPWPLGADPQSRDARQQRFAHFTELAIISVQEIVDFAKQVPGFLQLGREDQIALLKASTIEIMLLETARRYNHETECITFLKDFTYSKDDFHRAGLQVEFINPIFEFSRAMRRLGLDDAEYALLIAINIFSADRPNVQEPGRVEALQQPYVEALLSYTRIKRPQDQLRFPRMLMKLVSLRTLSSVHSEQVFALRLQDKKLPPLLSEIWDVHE

[5] = Luminescence-based cell-based high throughput dose response assay to identify activators of the DAF-12 from the parasite S. stercoralis (ssDAF-12).; assay type: functional
[6] = biological target: T1, Oxysterols receptor LXR-beta; assay type: functional, cell-based
[7] = Luminescence Cell-Based Dose Response HTS to Identify Activators of Luciferase Translation or Activity in H4 […] Cells. [Related pubchem assays: 1829 (Project Summary), 1814 (Primary HTS)]; assay type: functional
cells [8] = test: cells
[9] = NIH3T3 cell viability loss – ATP luminescence, mouse fibroblasts, counter-screen, dose response (AID 2010); assay type: functional, cell-based;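 further: cells exposed to compound for about 90 hours before reading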
cells [10] = assay type: functional, cell-based
[11] = Luminescence Cell-Based Dose Response HTS to Identify Inhibitors of 5'UTR Stem-Loop Driven Prion Protein mRNA Translation in H4 Neuroglioblastoma Cells. [Related pubchem assays: 1827 (Project Summary), 1813 (Primary HTS)]; assay type: functional
cells [12] = assay type: functional, cell-based; remark: listed apart in the source
[13] = NIH-3T3 fibroblast cytotoxicity, dose response, cytotoxicity control, cell-based, fluorescence, Alamar Blue, secondary assay (AID 2327); assay type: functional;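 further: NIH-3T3 mouse fibroblasts cultured with fluconazole at 8 µg/mL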
[14] = fluconazole-exposed Candida albicans growth modulators – fluorescence, retest, confirmation (AID 2467); assay type: functional, cell-based
[15] = Trypanosoma cruzi growth suppression in host cells – NIH3T3 host cells, beta-gal luminescence, confirmation (AID 2044); assay type: functional, cell-based;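 further: intracellular parasites grown in NIH/3T3 mouse fibroblasts as host cells; luminescent beta-galactosidase reporter signal from transgenic T. cruzi replicating inside host cells; inhibitors lower the luminescence signal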
[16] = luciferase reporter signal suppression in cells – H4 neuroglioma cells, luminescence, dose response (AID 1990); assay type: functional, cell-based
[17] = alpha-synuclein stem-loop luciferase translation blockers – H4 neuroglioma cells, luminescence, confirmation (AID 1988); assay type: functional, cell-based
H9c2 = test: cells; assay type: functional, cell-based; conditions: Rattus norvegicus, H9c2, Myocardium;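 further: confirmatory concentration-response retest of ultra-high-throughput screening hits for modulation of myocardial damage; cell death induced by hydrogen peroxide oxidative stress; compound pretreatment for 60 min then peroxide exposure for 2 h; potency is for protecting the cells against peroxide damage rather than for killing them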
Albumin = Albumin (Bos taurus, UniProt P02769); test: Counterscreen for inhibitors of T-cell receptor (TCR)-CD3 interaction: Fluorescence-based biochemical high throughput dose response assay to identify inhibitors of T-cell receptor (TCR)-CD3 interaction using a TAMRA-labeled BSA probe.; assay type: functional
Chain of Albumin (P02769 whole entry): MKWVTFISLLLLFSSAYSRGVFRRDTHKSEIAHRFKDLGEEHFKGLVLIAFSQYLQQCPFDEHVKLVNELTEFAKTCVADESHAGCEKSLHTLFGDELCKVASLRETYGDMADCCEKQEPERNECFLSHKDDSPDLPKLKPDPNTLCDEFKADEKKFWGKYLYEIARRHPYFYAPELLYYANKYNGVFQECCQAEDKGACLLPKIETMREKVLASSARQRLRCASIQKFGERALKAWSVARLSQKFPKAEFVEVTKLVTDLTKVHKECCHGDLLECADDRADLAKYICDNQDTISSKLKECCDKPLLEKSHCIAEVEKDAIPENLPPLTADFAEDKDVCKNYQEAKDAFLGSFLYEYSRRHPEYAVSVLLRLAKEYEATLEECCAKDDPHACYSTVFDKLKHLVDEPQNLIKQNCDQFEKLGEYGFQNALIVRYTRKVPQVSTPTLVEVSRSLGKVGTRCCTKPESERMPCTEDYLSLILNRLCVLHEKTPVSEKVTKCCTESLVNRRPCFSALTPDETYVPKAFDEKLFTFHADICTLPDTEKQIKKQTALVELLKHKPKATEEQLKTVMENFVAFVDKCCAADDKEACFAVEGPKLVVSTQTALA

[18] = OVCAR8 cell viability loss – plate reader, dry powder samples, PAX8 project, dose response (AID 743197); assay type: functional, cell-based; conditions: OVCAR-8
[19] = viability loss in HepG2 hepatoma cells – cell-based, ATP luminescence, cherry-pick, activator set 2, cytotoxicity control, dose response (AID 1053143); assay type: functional

With `C[C@@H]1CCCCO[C@@H](CN(C)Cc2ccc(C(F)(F)F)cc2)[C@H](C)CN([C@@H](C)CO)C(=O)c2cc(NC(=O)Nc3ccc(F)cc3)ccc2O1` the AC50 [1] was 45.7 µM (active) and the AC50 (Paired box protein Pax-8) was 3.37 µM (active).

For `Cc1ccc2nc(-c3ccc(NC(=O)COC(=O)c4ccc(Br)o4)cc3)sc2c1`, the EC50 [2] was 79.7 µM (active), the EC50 [3] was 37.3 µM (active) and the EC50 [4] was > 67.5 µM (inactive). The IC50 [5] was > 67.5 µM (inactive).

With `Cn1c(=O)c(/C=C/c2ccccc2)nc2ccccc21` the EC50 [6] was > 67.6 µM (inactive), the EC50 [7] was 0.174 µM (active) and the EC50 (cells [8]) was > 67.6 µM (inactive).

For `COc1cc2ccccc2cc1C(=O)NNC(=O)c1ccccc1O`, the EC50 [9] was > 60 µM (not active), the EC50 (cells [10]) was > 350 µM (not active) and the EC50 [11] was 14.9 µM (active). The EC50 (cells [12]) was > 350 µM (not active), the EC50 [13] was > 150 µM (inactive) and the EC50 [14] was > 38 µM (not active). The EC50 [15] was > 60 µM (not active), the EC50 [16] was > 60 µM (not active) and the EC50 [17] was 16.1 µM (active). The IC50 (H9c2) was > 79 µM (inactive) and the IC50 (Albumin) was > 94.2 µM (inactive).

With `Cn1cnc(NCc2ccccc2)c1[N+](=O)[O-]` the EC50 [4] was > 67.5 µM (inactive) and the IC50 [5] was > 67.5 µM (inactive).

In the case of `Cc1ccc(S(=O)(=O)Nc2ccc3c(c2)C(=O)N([C@H](C)CO)C[C@@H](C)[C@H](CN(C)Cc2ccc(Cl)c(Cl)c2)OCCCC[C@H](C)O3)cc1`, the AC50 [18] is reported as 37.8 µM (active), the AC50 [1] is reported as 25.4 µM (active) and the AC50 (Paired box protein Pax-8) is reported as 6.2 µM (active).

In the case of `Cc1cc(C)cc(NC(=O)Nc2ccc(N3CCCCC3)cc2)c1`, the AC50 [19] is reported as 26 µM (active).

For `Cc1onc(-c2ccccc2)c1C(=O)NN=Cc1cc(Cl)cc(Cl)c1O`, the IC50 (Albumin) was > 94 µM (inactive).
